{"source": "patent US9226912B2", "about": "“Acetyltanshinone IIA (ATA) as anticancer agent” (Nanyang Technological University, priority 2011, dated 2016)", "key": {"[1]": {"system": "GREB1 mRNA in MCF-7 cells", "assay": "Real-time PCR of GREB1 mRNA level", "conditions": "100 pM estrogen plus 6 μM compound, 24 h, normal medium", "experimental": "In order to do so, the mRNA level of a non-ER regulated gene GAPDH was measured and used as a reference. MCF-7 cells cultured in the charcoal-stripped medium were used as a control."}, "[2]": {"system": "ESR1 mRNA in MCF-7 cells", "assay": "Real-time PCR of ESR1 mRNA level", "conditions": "100 pM estrogen plus 6 μM compound, 24 h", "experimental": "MCF-7 cells cultured in the charcoal-stripped medium were used as control for the 0 h sample."}, "[3]": {"target": "T1, ERα in BT474 cells (Homo sapiens, UniProt P03372)", "T1 construct": "endogenous in cells; host or cells: BT474 human breast cancer cells", "T1 sequence (P03372 whole entry)": "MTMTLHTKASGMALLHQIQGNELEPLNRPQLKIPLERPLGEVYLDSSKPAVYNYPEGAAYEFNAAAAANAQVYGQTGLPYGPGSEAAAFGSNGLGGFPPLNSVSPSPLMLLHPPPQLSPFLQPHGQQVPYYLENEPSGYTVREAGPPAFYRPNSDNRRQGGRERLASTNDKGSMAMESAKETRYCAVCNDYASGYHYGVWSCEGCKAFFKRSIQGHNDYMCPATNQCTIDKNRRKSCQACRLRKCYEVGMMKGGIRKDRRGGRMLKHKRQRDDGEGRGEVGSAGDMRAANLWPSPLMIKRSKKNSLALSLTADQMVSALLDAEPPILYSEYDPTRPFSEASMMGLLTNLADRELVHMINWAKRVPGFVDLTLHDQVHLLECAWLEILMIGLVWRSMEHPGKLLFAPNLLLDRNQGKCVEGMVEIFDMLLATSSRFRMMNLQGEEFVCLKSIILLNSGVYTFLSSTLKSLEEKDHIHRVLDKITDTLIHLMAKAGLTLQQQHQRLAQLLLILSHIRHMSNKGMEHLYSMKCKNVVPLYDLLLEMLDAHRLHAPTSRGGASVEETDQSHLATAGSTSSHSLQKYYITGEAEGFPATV", "assay": "ERα protein level by Western blotting", "assay_type": "cell-based", "conditions": "6 μM ATA or 1 μM fulvestrant", "method": "Cells were treated with 6 μM ATA or 1 μM fulvestrant for indicated times and analyzed by Western blotting."}, "[4]": {"system": "Bax and cytochrome c in MDA-MB-435 cells", "assay": "Bax translocation and cytochrome c release, cell fractionation Western blot and immunofluorescence", "assay_type": "cell-based, human", "conditions": "20 μM PG, 5 μM ATA, 24 h", "method": "The concentration of ATA and PG were 5 μM and 20 μM, respectively. […] Scale bar=10 μm.\nThe value of CY/MT represents the ratio of integrated band intensity of cytosol fraction (CY) over corresponding integrated band intensity of mitochondrial fraction (MT). The ratio was normalized by the control group. Two proteins were used as internal markers to judge the quality of cell fractionation experiment: Cox IV for mitochondria and β-tubulin mainly for cytosol.\nThe subcellular localization changes of Bax and cytochrome c during ATA-induced apoptosis were first examined using immunofluorescence staining.\n(§1) It was further tested, whether PG could prevent ROS generation after ATA treatment."}, "[5]": {"system": "ROS in MDA-MB-435 cells", "assay": "ROS generation and its prevention by PG", "assay_type": "cell-based, human", "conditions": "pre-treating cells with 20 μM PG", "method": "(A) PG prevented ATA-induced cell death. Three concentrations of PG were tested for their protective effects on ATA-induced cell death. The cell viability was measured by SRB assay. (* p<0.01). (B) PG protected ROS generation caused by ATA treatment. […] All the experiments were performed at least three times. The results presented in this figure are the average of three experiments. Error bar represents standard deviation. Scale bar=20 μm.\nas §1"}, "[6]": {"system": "MCF-7 cells", "assay": "Combinatorial effect of ATA with paclitaxel, MTT assay", "assay_type": "cell-based", "conditions": "Homo sapiens, MCF7, paclitaxel alone at 1 nM, read-out: cell growth inhibition rate", "method": "The effect was determined by measuring the rates of cell growth inhibition using MTT assay. (* p<0.01, compared with cells treated with either paclitaxel alone or ATA alone).\nThe inventors of the present invention have shown for the first time that ATA can increase the cytotoxic effect of paclitaxel. In the tests (FIG. 16) with five concentrations of ATA at 10, 5, 2.5, 1.25, 0.625 μM and five concentrations of paclitaxel at 1000, 100, 10, 1, 0.1 nM were used."}, "[7]": {"system": "MCF-7/HER2 cells", "assay": "Growth inhibition of HER2 over-expressing cells at 72 h", "assay_type": "cell-based", "conditions": "paclitaxel 1×10^−3 μM to 10 μM; ATA 0.78 μM to 6.25 μM", "excerpt": "The efficacy of ATA on MCF-7 cells with over-expressed HER2 protein was investigated."}, "[8]": {"system": "HeLa cells", "assay": "ATA-induced cell death by cell counting under a microscope", "assay_type": "cell-based", "conditions": "2 μM z-VAD-fmk pre-treatment 2 h, then 10 or 20 μM ATA, 24 h and 48 h", "method": "HeLa cells were treated with 10 μM ATA for 12, 24, 36, and 48 h. The β-tubulin protein was probed as a loading control. […] HeLa cells were pre-treated with 2 μM pan-caspase inhibitor (z-VAD-fmk) for 2 h before ATA addition. Then 10 μM or 20 μM ATA were added. After 24 h and 48 h treatment, the number of died cells was counted under a microscope. (* p<0.01, compared with cells treated with ATA only). Control: cells without any treatment.\nOverexpression of Bcl-2 inhibited ATA-induced cell death. HeLa cells transfected with either yellow fluorescent protein (YFP) (vector control) or YFP-Bcl-2 (Bcl-2) were treated with ATA at 10 or 20 μM. The percentage of cell death from YFP-positive cells was determined by cell counting under a fluorescence microscope. (* p<0.01, compared with vector control groups).\nThe inventors of the present invention have shown for the first time that ATA can activate the apoptotic pathway in cancer cells. […]\nHeLa cells transfected with YFP-Bcl-2 or YFP only were treated with 10 μM or 20 μM ATA. After 24 h or 48 h treatment, the percentage of cell death in each sample was calculated by counting the numbers of fluorescence-positive cells either live (attached with a normal cell morphology) or dead (detached with a shrunk morphology) under a fluorescence microscope. […]"}}, "data": [{"compound": "CC/C(=C(\\c1ccccc1)c1ccc(OCCN(C)C)cc1)c1ccccc1", "note": "[tamoxifen, reference compound]", "values": [{"measurement": "GREB1 level of the control", "setting": "[1]", "value": "comparable"}, {"measurement": "level of ESR1 mRNA over control", "setting": "[2]; charcoal-stripped medium", "value": "about 70%"}, {"measurement": "level of ESR1 mRNA over control", "setting": "[2]; normal medium", "value": "only slightly decreased"}]}, {"compound": "C[C@]12CC[C@@H]3c4ccc(O)cc4C[C@@H](CCCCCCCCC[S+]([O-])CCCC(F)(F)C(F)(F)F)[C@H]3[C@@H]1CC[C@@H]2O", "note": "(stereo partly drawn) [Fulvestrant, fulvestrant, reference compound]", "values": [{"measurement": "level of ERα", "setting": "[3]", "value": "only reduced ERα"}]}, {"compound": "CCCOC(=O)c1cc(O)c(O)c(O)c1", "note": "[PG, propyl gallate, reference compound]", "values": [{"measurement": "effect on Bax translocation and cytochrome c release in ATA-treated cells", "setting": "[4]", "value": "could effectively prevent"}, {"measurement": "effect on ATA-induced ROS level increase", "setting": "[5]", "value": "completely prevented"}]}, {"compound": "CC(=O)O[C@H]1C(=O)[C@@]2(C)[C@H]([C@H](OC(=O)c3ccccc3)[C@]3(O)C[C@H](OC(=O)[C@H](O)[C@@H](NC(=O)c4ccccc4)c4ccccc4)C(C)=C1C3(C)C)[C@]1(OC(C)=O)CO[C@@H]1C[C@@H]2O", "note": "[paclitaxel, reference compound]", "values": [{"measurement": "inhibition at 0.001 µM", "setting": "[6]", "value": "~40", "unit": "%"}, {"measurement": "sensitivity of MCF-7/HER2 cells compared with MCF-7 cells", "setting": "[7]", "value": "more resistance to paclitaxel than MCF-7 cells"}]}, {"compound": "z-VAD-fmk [reference compound]", "values": [{"measurement": "effect on ATA-induced cell death", "setting": "[8]", "value": "could be inhibited"}]}]}
